According to patent US20160193278A1, “METHODS AND COMPOSITIONS FOR PREVENTING OR TREATING LEBER'S HEREDITARY OPTIC NEUROPATHY” (STEALTH BIOTHERAPEUTICS CORP, priority 2013, published 2016):
Where no end group is shown, it is not given here. [ ]: non-standard residue; d: D form.

How the values were obtained:
[1] = system: several mammalian cell types; conditions: cited from earlier work
[2] = system: excessive production of reactive oxygen species; conditions: cited from earlier work
LHON patients [3] = conditions: cited from earlier work
LHON patients [4] = conditions: 900 mg/d for 24 weeks, vs placebo; preliminary press release; cited from earlier work
[5] = system: brain mitochondrial H2O2 production; experiment: Brain mitochondrial / synaptosome H2O2 production with rotenone; format: biochemical, mouse; conditions: for decrease of the rate of generation of H2O2 during RET conditions: succinate plus oligomycin
quails = conditions: group with high zeaxanthin concentrations; cited from earlier work
[6] = system: murine model of LHON (ND6 P25L mutation); experiment: Treatment of LHON in ND6 P25L mouse model (Example 2); format: in vivo; conditions: ND6 P25L mice
[7] = system: LHON cybrid cells (11778/ND4, 3460/ND1, 14484/ND6); experiment: Respiratory rate of digitonin-permeabilized LHON cybrids (Example 4); format: cell-based, human; conditions: 1-10 μg, compared to untreated LHON cybrid cells
Text: (§1) Cybrid cell lines are constructed using enucleated fibroblasts from a control individual (i.e., negative for LHON) and 3 unrelated probands with LHON as mitochondria donors. One control cybrid cell line and three LHON cybrid cell lines, one for each of the most common pathogenic mutations found in LHON, i.e., mutations at positions 11778/ND4, 3460/ND1, and 14484/ND6 of mtDNA, are produced.
The mitochondrial donor cytoplast is fused with the osteosarcoma (143B.TK-)-derived 206 cell line (rho^0 206 cell line). All fibroblast cell lines are established from skin biopsy samples or from umbilical cord specimens after having obtained the informed consent of LHON and control patients. Cell fusions of fibroblast-derived cytoplasts (enucleated fibroblasts) with the rho^0 206 cells are performed using the protocol, e.g., described in King et al., Science, 246: 500-03 (1989). […]
(§2) 1 ml of each cybrid cell line at 5×10^6 cells/ml is individually plated in tissue culture plates with growth media. […] After incubation for 1 hour at 37° C., the ATP synthesis rate and cellular respiration are measured.
Respiratory rates of digitonin-permeabilized cell samples are measured at 30° C. using a Clark-type oxygen electrode as previously described by Aicardi et al., Biochem Pharmacol., 31:3703-3705 (1982). The respiratory control ratio (RCR) is evaluated using glutamate-malate as a substrate.

[8] = system: human subjects at risk of having, suspected of having, or diagnosed as having LHON; experiment: Prevention and treatment of LHON in human subjects (Example 3); format: in vivo
Method: Human subjects at risk of having, suspected of having, or diagnosed as having LHON are administered a therapeutically effective amount of an aromatic-cationic peptide of the present technology, such as D-Arg-2′,6′-Dmt-Lys-Phe-NH2, alone or in conjunction with one or more additional therapeutic agents, on a therapeutic schedule appropriate for the prophylactic/therapeutic needs of the individual.
LHON patients are administered 1-10 μg D-Arg-2′,6′-Dmt-Lys-Phe-NH2 or saline vehicle subcutaneously once daily for 12 months. In another treatment group, LHON patients receive 1 drop of 1%, 3%, or 5% D-Arg-2′,6′-Dmt-Lys-Phe-NH2 ophthalmic solution or saline vehicle in both eyes three times per day for 12 months. Subjects are assessed periodically for signs and symptoms associated with LHON according to one or more criteria described herein.

[9] = system: reactive oxygen species (ROS) production; conditions: known in the art; demonstrated in U.S. Pat. Nos. 7,550,439 and 7,576,061; cited from earlier work
mu-opioid receptor = mu-opioid receptor (Homo sapiens, UniProt P35372); conditions: cited from earlier work
[10] = system: murine model of LHON (ND6 P25L mutation); experiment: Prevention of LHON in ND6 P25L mouse model (Example 1); format: in vivo; conditions: ND6 P25L mice
[11] = system: LHON cybrid cells (11778/ND4, 3460/ND1, 14484/ND6); experiment: ATP synthesis rate in LHON cybrids (Example 4); format: cell-based, human; conditions: 1-10 μg, compared to untreated LHON cybrid cells
Text: as §1
The mitochondrial donor cytoplast is fused with the osteosarcoma (143B.TK-)-derived 206 cell line (rho^0 206 cell line). All fibroblast cell lines are established from skin biopsy samples or from umbilical cord specimens after having obtained the informed consent of LHON and control patients. […]
as §2
The ATP synthesis rate is assayed by permeabilizing the cells with digitonin according to the method described by Ouhabi et al., Anal Biochem., 263: 169-175 (1998). […] The ATP content is measured using the luciferin-luciferase chemiluminescent method, e.g., described in Stanley et al., Anal Biochem., 29: 381-392 (1969).

[12] = system: caspase activation and apoptosis; conditions: known in the art; cited from earlier work
[13] = once daily from 14-24 months of age
[14] = once daily from 0-14 months of age

Chain of mu-opioid receptor (P35372 whole entry, species assumed): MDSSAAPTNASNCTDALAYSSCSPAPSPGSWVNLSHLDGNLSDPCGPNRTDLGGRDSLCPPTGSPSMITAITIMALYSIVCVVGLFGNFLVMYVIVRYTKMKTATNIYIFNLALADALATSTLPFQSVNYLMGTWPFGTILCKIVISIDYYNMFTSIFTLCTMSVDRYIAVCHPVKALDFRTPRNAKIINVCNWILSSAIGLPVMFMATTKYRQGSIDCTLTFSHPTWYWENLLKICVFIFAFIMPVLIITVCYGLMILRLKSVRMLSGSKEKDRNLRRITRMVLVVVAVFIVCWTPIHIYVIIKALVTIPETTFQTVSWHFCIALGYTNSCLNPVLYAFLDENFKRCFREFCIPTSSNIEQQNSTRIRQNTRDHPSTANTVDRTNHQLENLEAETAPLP

Compound: 2′,6′-Dmt-D-Arg-Phe-Lys-NH2
- penetration of the plasma membrane [1]: readily penetrates the plasma membrane of several mammalian cell types in an energy-independent manner

Compound: Cc1c(C)c2c(c(C)c1O)CCC(C)(C(=O)O)O2 (stereo not drawn) [Trolox]
- protective effects in vitro [2]: modest protective effects

Compound: COC1=C(OC)C(=O)C(C/C=C(\C)CC/C=C(\C)CC/C=C(\C)CC/C=C(\C)CC/C=C(\C)CC/C=C(\C)CC/C=C(\C)CC/C=C(\C)CC/C=C(\C)CCC=C(C)C)=C(C)C1=O [coenzyme Q-10]
- protective effects in vitro [2]: modest protective effects

Compound: N[C@@H](CCC(=O)N[C@@H](CS)C(=O)NCC(=O)O)C(=O)O [glutathione]
- protective effects in vitro [2]: modest protective effects

Compound: COC1=C(OC)C(=O)C(CCCCCCCCCCO)=C(C)C1=O [idebenone]
- diameter of the central scotomas after treatment (LHON patients [3]; one 11778/ND4 LHON patient, from about 20 degrees): less than 5 degrees
- recovery of visual function (LHON patients [3]; seven LHON patients, about 450 mg/d): recovery of visual acuity, color vision, and visual fields
- final visual acuity (LHON patients [4]): better final visual acuity than the placebo group

Compound: C=C(C)[C@H]1Cc2c(ccc3c2O[C@@H]2COc4cc(OC)c(OC)cc4[C@@H]2C3=O)O1 [rotenone]
- decrease of the rate of generation of H2O2 during RET conditions ([5]; ND6 P25L mice): approximately 59%
- increase of the rate of H2O2 production during forward electron transfer ([5]; ND6 P25L synaptosomes): ~2.7 fold
- decrease of the rate of generation of H2O2 during RET conditions ([5]; wild-type animals): approximately 79%
- increase of the rate of H2O2 production during forward electron transfer ([5]; wild-type synaptosomes): ~2.3 fold

Compound: CC1=C(/C=C/C(C)=C/C=C/C(C)=C/C=C/C=C(C)/C=C/C=C(C)/C=C/C2=C(C)C[C@@H](O)CC2(C)C)C(C)(C)C[C@H](O)C1 [zeaxanthin]
- light damage of the retina (apoptotic photoreceptor cells) (quails): minimal damage

Compound: D-Arg-2′,6′-Dmt-Lys-Phe-NH2
- RGC axonal swelling and preferential loss of smallest fibers [6, 13]: reduce or eliminate the effects of the ND6 P25L mutation
- abnormal mitochondrial morphology and proliferation in RGC axons [6, 13]: reduce or eliminate the effects of the ND6 P25L mutation
- altered liver mitochondria complex I activity [6, 13]: reduce or eliminate the effects of the ND6 P25L mutation
- forward / reverse electron flow ROS production in liver mitochondria [6, 13]: reduce or eliminate the effects of the ND6 P25L mutation
- reduced complex I activity and altered ROS production in synaptosomes [6, 13]: reduce or eliminate these effects of the ND6 P25L mutation
- reduced retinal response (electroretinogram deficits) [6, 13]: reduce or eliminate the effects of the ND6 P25L mutation
- effect of combination compared to any individual therapeutic agent alone ([6]; in combination with one or more additional therapeutic agents, treatment): synergistic effects
- respiratory rate [7]: higher respiratory rate
- symptoms of LHON ([8]; human subjects at risk of, suspected of or diagnosed as having LHON): prevent the onset of, delay the onset of, or reduce the severity of the symptoms of LHON
- effect of combination compared to any individual therapeutic agent alone ([8]; in combination with one or more additional therapeutic agents, human subjects): synergistic effects
- anti-oxidant properties [9]: possess anti-oxidant properties
- mu-opioid receptor agonist activity (mu-opioid receptor): does not have mu-opioid receptor agonist activity
- RGC axonal swelling and preferential loss of smallest fibers [10, 14]: prevent the onset of, delay the onset of, or reduce the severity of these effects
- abnormal mitochondrial morphology and proliferation in RGC axons [10, 14]: prevent the onset of, delay the onset of, or reduce the severity of these effects
- altered liver mitochondria complex I activity [10, 14]: prevent the onset of, delay the onset of, or reduce the severity of these effects
- effects of the ND6 P25L mutation; LHON and its symptoms [10, 14]: prevent the onset of, delay the onset of, and/or reduce the severity (e.g., ameliorate) of the effects of the ND6 P25L mutation
- forward / reverse electron flow ROS production in liver mitochondria [10, 14]: prevent the onset of, delay the onset of, or reduce the severity of these effects
- reduced complex I activity and altered ROS production in synaptosomes [10, 14]: prevent the onset of, delay the onset of, or reduce the severity of these effects
- reduced retinal response (electroretinogram deficits) [10, 14]: prevent the onset of, delay the onset of, or reduce the severity of (e.g. ameliorate) these effects
- effect of combination compared to any individual therapeutic agent alone ([10]; in combination with one or more additional therapeutic agents, prevention): synergistic effects
- ATP synthesis rate [11]: greater ATP synthesis rate
- caspase activation and apoptosis [12]: capacity to inhibit caspase activation and apoptosis

Compound: F[dR]FK-NH2
- mu-opioid receptor agonist activity (mu-opioid receptor): does not have mu-opioid receptor agonist activity

Compound: Tyr-D-Arg-Phe-Lys-NH2
- mu-opioid receptor agonist activity (mu-opioid receptor): has mu-opioid receptor agonist activity
